According to US6642249B2, “Immunomodulating compounds” (Active Biotech AB, priority 2001, dated 2003):

These compounds were tested against T1, CD28-CD80 interactions (Homo sapiens, UniProt P33681) (assay: Time resolved fluorescence competition assay: CD28-CD80 interactions). Conditions: inhibition of CD28-mFc (5 nM) / CD80FabC215 (10 nM) interaction; representative results.
T1 sequence (P33681 35-242 limits assumed): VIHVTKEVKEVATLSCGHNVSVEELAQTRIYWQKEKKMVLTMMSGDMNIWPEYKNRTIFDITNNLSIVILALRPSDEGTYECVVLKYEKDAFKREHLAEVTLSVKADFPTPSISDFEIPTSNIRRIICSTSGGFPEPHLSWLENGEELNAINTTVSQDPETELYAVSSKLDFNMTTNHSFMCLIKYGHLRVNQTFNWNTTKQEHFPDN
Format: binding
Method: Time resolved fluorescence competition assay protocol: CD28-CD80 interactions.
50 mM Tris-HCl, 150 mM NaCl, 0.05% Tween 20, pH 7.8, containing 0.1% BSA (w/v), added prior to use.
The substances to be tested for inhibitory effects were serially diluted from stock concentrations of 20 mM (DMSO) in assay buffer to preparation concentrations of 200, 100, 50 and 25 μM. The final concentration in the wells was 100, 50, 25 and 12.5 μM, respectively. The maximum final DMSO concentration tolerated in the assay was 0.5%. Where appropriate, the dilution series was adjusted and extended to measure the IC50.
CTLA4-hIg(Fc) was diluted to working concentrations of 20 nM and 2 nM, resulting in final concentrations of 10 nM and 1 nM in the well. At these concentrations (10 nM and 1 nM) approximately 90% and 30% inhibition levels were observed.
Preparation of Reagent Mixture
To a tube containing 1.1 ml assay buffer, the following reagents were added:
900 μl of the above reagent mixture was transferred to a new tube. CD80FabC215 was added at a preparation concentration of 20 nM, (i.e. 4.3 μl from 0.4 mg/ml stock). The final concentration in the well was 10 nM.
To the remaining 200 μl reagent mixture C215Fab was added as control for non-specific binding (NSB). 0.5 μl from a 0.36 mg/ml stock gave a preparation concentration of 20 nM and a final concentration in the well of 10 nM.
To a black, half area, 96-well microtiter plate, the C215Fab containing reagent mixture was transferred to column 12, row E-H (4 wells), 10 μl/well with a single channel electronic pipette. 10 μl/well of the CD80FabC215 containing reagent mixture was transferred with a single channel electronic pipette to all other wells on the plate
B0: Assay buffer, 10 μl/well was pipetted to the CD80FabC215 containing wells in column 12, row A-D (4 wells).
NSB: Assay buffer, 10 μl/well was pipetted to the C215Fab containing wells in column 12, row E-H (4 wells).
CTLA4-hIg(Fc), 10 μl/well of 20 and 2 nM (final conc 10 and 1 nM) was pipetted in duplicate into well 11 E-F and 11 G-H.
Sample dilution series: 10 μl/well in duplicate to the remaining wells.
The plate was covered with a plastic lid and incubated in the dark: Initially for 1 h on a shaker platform at room temperature (RTS), stationary at +4° C. overnight, and finally 1 h RTS before reading.
The plate was measured on a Victor 1420 Multilabel Counter using the LANCE protocol (#2) measuring emission at dual wavelengths, from both APC (665 nm) and Europium (615 nm). First measurement: Excitation 340 nm, emission 665 nm, delay 50 μs, window time 200 μs. Second measurement: Excitation 340 nm, emission 615 nm, delay 50 μs, window time 200 μs.
The fluorescence signal ratio 1000* 665 nm/615 nm, from which the percentage inhibition was calculated, was determined. A logit b plot (Logit b=LN (% Bound/(100% −% Bound, plotted against Log conc) was performed from which IC50 was measured.

SMILES | IC50 [nM]
O=C(O)c1cccc(-n2nc3c4ccccc4[nH]cc-3c2=O)c1 [3-(3-Oxo-3,5-dihydro-pyrazolo[4,3-c]quinolin-2-yl)-benzoic Acid] | 880
O=C(O)c1ccc(-n2nc3c4ccccc4scc-3c2=O)cc1 [4-(3-Oxo-3H-thiochromeno[4,3-c]pyrazol-2-yl)benzoic Acid] | 13500
O=C(O)c1ccc(-n2nc3c4ccccc4[nH]cc-3c2=O)cc1 [4-(3-oxo-3,5-dihydro-pyrazolo[4,3-c]quinolin-2-yl)-benzoic Acid] | 480
O=C(O)CCC(=O)Nc1ccc(-n2nc3c4ccccc4[nH]cc-3c2=O)cc1 [N-[4-(3-Oxo-3,5-dihydro-pyrazolo[4,3-c]quinolin-2-yl)-phenyl]-succinamic Acid] | 600

The remaining lines, values ahead:

IC50 [nM] | SMILES
270 | O=C(O)c1ccc(-n2nc3c4ccccc4[nH]cc-3c2=O)cc1Cl [2-Chloro-4-(3-oxo-3,5-dihydro-pyrazolo[4,3-c]quinolin-2-yl)-benzoic Acid]
3900 | O=C(O)CNC(=O)c1ccc(-n2nc3c4ccccc4[nH]cc-3c2=O)cc1 [2-[4-(3-Oxo-3,5-dihydro-pyrazolo[4,3-c]quinolin-2-yl)-benzoylamino]-2-acetic Acid]
1600 | O=C(O)CCc1ccc(-n2nc3c4ccccc4[nH]cc-3c2=O)cc1 [[4-(3-Oxo-3,5-dihydro-pyrazolo[4,3-c]quinolin-2-yl)-phenyl]-propionic Acid]
